From PMC12814486 (Bioorganic & medicinal chemistry, 2025)

Legend:
Delta opioid (DOR) = Delta opioid (DOR) (Homo sapiens, UniProt P41143); experiment: NIMH PDSP binding screen; settings: read-out: Inhibition (%) Delta opioid (DOR)
mouse sEH = biological target: T1, mouse sEH (Mus musculus, UniProt P34914); experiment: sEH inhibition assay; format: biochemical
T1 sequence (P34914 1-554): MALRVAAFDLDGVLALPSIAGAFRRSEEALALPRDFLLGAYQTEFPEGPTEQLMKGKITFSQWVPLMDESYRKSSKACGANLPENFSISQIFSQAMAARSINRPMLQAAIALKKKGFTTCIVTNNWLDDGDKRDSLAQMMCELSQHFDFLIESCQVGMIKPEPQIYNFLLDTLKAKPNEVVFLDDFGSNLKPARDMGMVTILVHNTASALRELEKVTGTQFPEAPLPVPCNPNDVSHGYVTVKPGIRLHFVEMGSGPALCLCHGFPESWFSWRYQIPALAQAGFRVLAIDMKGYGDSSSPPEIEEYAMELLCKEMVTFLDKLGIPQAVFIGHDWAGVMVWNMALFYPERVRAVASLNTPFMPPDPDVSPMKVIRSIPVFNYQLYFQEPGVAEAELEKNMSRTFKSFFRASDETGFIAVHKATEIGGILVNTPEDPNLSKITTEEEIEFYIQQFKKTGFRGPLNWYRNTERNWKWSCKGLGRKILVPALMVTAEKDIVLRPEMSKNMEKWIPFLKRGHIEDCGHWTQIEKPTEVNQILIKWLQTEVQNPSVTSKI

human sEH = biological target: T2, human sEH (Homo sapiens, UniProt P34913); experiment: sEH inhibition assay; format: biochemical
T2 sequence (P34913 1-555): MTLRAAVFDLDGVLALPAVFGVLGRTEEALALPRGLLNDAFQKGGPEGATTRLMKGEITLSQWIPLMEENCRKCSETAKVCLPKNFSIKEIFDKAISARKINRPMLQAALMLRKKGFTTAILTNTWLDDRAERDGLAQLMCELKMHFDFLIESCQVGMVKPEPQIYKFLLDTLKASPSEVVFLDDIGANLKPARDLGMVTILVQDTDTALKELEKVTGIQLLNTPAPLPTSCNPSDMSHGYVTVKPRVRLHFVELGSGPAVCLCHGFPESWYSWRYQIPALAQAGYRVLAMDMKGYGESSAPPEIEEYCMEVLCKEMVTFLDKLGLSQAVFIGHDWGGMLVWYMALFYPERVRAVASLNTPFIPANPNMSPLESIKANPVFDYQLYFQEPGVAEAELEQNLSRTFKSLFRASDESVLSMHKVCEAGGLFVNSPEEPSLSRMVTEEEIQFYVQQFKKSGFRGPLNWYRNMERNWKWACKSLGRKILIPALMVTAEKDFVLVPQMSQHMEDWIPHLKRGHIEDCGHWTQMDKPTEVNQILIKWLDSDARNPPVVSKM

human FAAH = biological target: T3, human FAAH (Homo sapiens, UniProt O00519); experiment: FAAH inhibition assay; format: biochemical
T3 sequence (O00519 1-579): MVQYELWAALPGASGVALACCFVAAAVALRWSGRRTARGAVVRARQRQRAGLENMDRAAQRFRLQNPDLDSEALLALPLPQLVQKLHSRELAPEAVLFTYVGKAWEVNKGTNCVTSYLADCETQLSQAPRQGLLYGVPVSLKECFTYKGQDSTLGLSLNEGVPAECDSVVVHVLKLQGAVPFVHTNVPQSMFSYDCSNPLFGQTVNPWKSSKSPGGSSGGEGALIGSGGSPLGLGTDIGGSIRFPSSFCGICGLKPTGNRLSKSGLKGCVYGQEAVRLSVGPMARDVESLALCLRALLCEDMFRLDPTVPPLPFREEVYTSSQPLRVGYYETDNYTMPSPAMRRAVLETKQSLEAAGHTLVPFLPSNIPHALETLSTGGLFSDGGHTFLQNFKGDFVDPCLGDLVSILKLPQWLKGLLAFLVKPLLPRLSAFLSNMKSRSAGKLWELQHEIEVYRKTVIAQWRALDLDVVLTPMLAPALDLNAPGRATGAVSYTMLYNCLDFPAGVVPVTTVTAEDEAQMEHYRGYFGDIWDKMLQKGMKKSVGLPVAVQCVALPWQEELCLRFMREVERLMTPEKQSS

5-HT4 = 5-HT4 (Homo sapiens, UniProt Q13639); experiment: NIMH PDSP binding screen; settings: read-out: Inhibition (%) 5-HT4
Chain of 5-HT4 (Q13639 whole entry, species assumed): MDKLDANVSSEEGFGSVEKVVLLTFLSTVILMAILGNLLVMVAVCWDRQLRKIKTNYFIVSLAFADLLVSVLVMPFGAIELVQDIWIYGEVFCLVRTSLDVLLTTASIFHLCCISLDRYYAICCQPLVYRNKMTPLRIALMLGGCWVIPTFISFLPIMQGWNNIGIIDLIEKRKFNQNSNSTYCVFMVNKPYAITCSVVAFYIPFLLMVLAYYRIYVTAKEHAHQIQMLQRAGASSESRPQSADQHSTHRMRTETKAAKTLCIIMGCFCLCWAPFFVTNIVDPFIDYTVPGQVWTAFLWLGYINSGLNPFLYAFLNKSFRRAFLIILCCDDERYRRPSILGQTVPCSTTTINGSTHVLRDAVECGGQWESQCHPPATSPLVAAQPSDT

Chain of Delta opioid (DOR) (P41143 whole entry): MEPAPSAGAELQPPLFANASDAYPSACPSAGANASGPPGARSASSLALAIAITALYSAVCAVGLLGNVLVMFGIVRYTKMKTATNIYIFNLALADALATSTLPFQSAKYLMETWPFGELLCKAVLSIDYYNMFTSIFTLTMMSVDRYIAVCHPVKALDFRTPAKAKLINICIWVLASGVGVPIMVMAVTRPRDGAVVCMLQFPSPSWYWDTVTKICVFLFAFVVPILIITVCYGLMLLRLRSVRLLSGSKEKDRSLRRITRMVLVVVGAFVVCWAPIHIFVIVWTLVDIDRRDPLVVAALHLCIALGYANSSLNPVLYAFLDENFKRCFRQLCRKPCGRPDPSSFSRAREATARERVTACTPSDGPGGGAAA

Molecule `O=C(Nc1ccc(-c2cnc3ccccc3n2)cc1)C1CCN(S(=O)(=O)c2ccccc2Cl)CC1` [Compound 4m, 1-((2-chlorophenyl)sulfonyl)-N-(4-(quinoxalin-2-yl)phenyl)piperidine-4-carboxamide] has an inhibition at 10 µM (Delta opioid (DOR)) of -0.23 ± 11.9%, an IC50 (mouse sEH) of 39.1 nM and an IC50 (human sEH) of 0.7 nM. It also gave an IC50 (human FAAH) of 2.9 nM and an inhibition at 10 µM (5-HT4) of 29.6 ± 23.2%.
